Reference: paper PMC7156724, “Potent BRD4 inhibitor suppresses cancer cell-macrophage interaction” (Nature Communications, 2020)
Like-named read-outs stand apart in the source and are kept apart here.

Test: In vivo pharmacokinetics study, mouse
Conditions: male, BALB/c nude, plasma
Procedure: 4–6 weeks old female BALB/c nude mice were used for most experiments, with the exception of 6–8 weeks old female C57BL/6 mice were used for B16F10 experiments, and 6–8 weeks old male BALB/c nude mice and SD rats were used for pharmacokinetic experiments. All animals were purchased from Shanghai SIPPR-Bk Lab Animal Co., Ltd. All animals were housed under a regimen of 12 h light/12 h dark cycles and specific pathogen-free conditions. 5×10^6 NCI-H526, ES-2, MDA-MB231, A2780, A375, B16F10, and TMD-8 cells (0.1 ml) were injected subcutaneously into female nude mice. The melanoma patient-derived xenograft model was derived from a human melanoma sample (BRAF, NARS and NF1 wild type, and p53 mutant) removed from a patient in Xiangya Hospital. Surgically removed tumor fragments were implanted subcutaneously into female NSG mice. When the tumors grew to ~1000 mm^3, they were harvested and cryopreserved or immediately re-implanted for expansion or experiments. Mouse body weight and tumor sizes were measured every 3 days. Once the tumors grew to 150–200 mm^3, mice were treated with the compounds as described in the Figures. 1 × 10^6 A2780 cells (1 ml) were injected into the abdominal cavity of nude mice. Ascitic volume and tumor weight were measured by an electronic balance. All the procedures were evaluated and approved by the Institutional Animal Care and Use Committee of Central South University and Yale University.
Supplementary Figure 7. Pharmacokinetic profile of NHWD-870 using mouse and rat models.
(a,b) Plasma concentrations of NHWD-870 in healthy (a) mouse and (b) rat after intravenous (IV, 1.75 mg/kg for mouse and 1 mg/kg for rat) and oral (PO, 5 mg/kg) administration. Values shown on the right panels are mean ± SEM from 3 different animals. (c,d) Mean concentrations of NHWD-870 in the lungs (c) and tumors (d) of H526 xenograft model at the indicated hours after oral administration of 3 mg/kg NHWD-870 and BMS-98615821 on day 21. These mice were administrated the indicated drug daily for 21 days. Data are represented as mean ± SEM of 3 independent experiments. Source data are provided as a Source Data file. […]
9. In vivo pharmacokinetics study. Mouse and SD rat models were used to evaluate pharmacokinetic property of NHWD-870. NHWD-870 was administrated […]
Concentration of drugs in plasma, lung and tumor tissues were measured for the indicated time. […]

[1] = iv, 1.75 mg/kg, IV 1.75 mg/kg, individual mice, read-out: Plasma concentration
[2] = iv, 1.75 mg/kg, IV 1.75 mg/kg, mean of 3 mice, read-out: Plasma concentration, Mean
[3] = po, 5 mg/kg, PO 5 mg/kg, mean of 3 mice, read-out: Plasma concentration, Mean
[4] = po, 5 mg/kg, PO 5 mg/kg, individual mice, read-out: Plasma concentration

SMILES: Cc1nnn(C)c1-c1cnc2c3c4cnn(C)c4ccc3n([C@H](c3ccccc3)C3CCOCC3)c2c1 [NHWD-870]
- clearance (IV 1.75 mg/kg): 35 ± 7.45 mL/min/kg
- Vd (IV 1.75 mg/kg, read-out: Vdss): 4.17 ± 0.42 L/kg
- AUC(0-inf) (PO 5 mg/kg): 2010 ± 165 ng·h/mL
- AUC(0-t) (PO 5 mg/kg): 1950 ± 172 ng·h/mL
- Cmax (PO 5 mg/kg): 467 ± 74 ng/mL
- MRT inf (PO 5 mg/kg): 3.16 ± 0.24 h
- Tmax (PO 5 mg/kg): 1.33 ± 0.29 h
- concentration at 24 h (PO 5 mg/kg, individual mice, read-out: Plasma concentration): 1.94 ng/mL
- half-life (iv, 1.75 mg/kg, IV 1.75 mg/kg): 1.73 ± 0.325 h
- concentration at 5 min [1]: 614 ng/mL
- concentration at 5 min [2]: 560 ng/mL
- concentration at 0.25 h [1]: 491 ng/mL
- concentration at 0.25 h [2]: 428 ng/mL
- concentration at 0.5 h [1]: 388 ng/mL
- concentration at 0.5 h [2]: 353 ng/mL
- concentration at 1 h [1]: 417 ng/mL
- concentration at 1 h [2]: 325 ng/mL
- concentration at 2 h [1]: 362 ng/mL
- concentration at 2 h [2]: 302 ng/mL
- concentration at 4 h [1]: 190 ng/mL
- concentration at 4 h [2]: 201 ng/mL
- concentration at 8 h [1]: 50.2 ng/mL
- concentration at 8 h [2]: 54.1 ng/mL
- concentration at 24 h [1]: 0.937 ng/mL
- concentration at 24 h [2]: 1.06 ng/mL
- half-life (po, 5 mg/kg, PO 5 mg/kg): 1.29 ± 0.055 h
- concentration at 0.25 h [3]: 266 ng/mL
- concentration at 0.5 h [3]: 382 ng/mL
- concentration at 1 h [3]: 449 ng/mL
- concentration at 2 h [4]: 528 ng/mL
- concentration at 2 h [3]: 512 ng/mL
- concentration at 4 h [4]: 299 ng/mL
- concentration at 4 h [3]: 320 ng/mL
- concentration at 6 h (po, 5 mg/kg, PO 5 mg/kg, 6 h, mean of 3 mice): 169 ng/mL
- concentration at 8 h [3]: 119 ng/mL
- concentration at 24 h [4]: 1.06 ng/mL
- concentration at 24 h [3]: 1.32 ng/mL
- bioavailability (po, 5 mg/kg, PO 5 mg/kg, read-out: F (%), oral bioavailability): 70.8 ± 5.8%
